Data on 1 compound can be found in patent US20240383910A1, “SMALL MOLECULE BTK DEGRADERS AND METHODS OF USE THEREOF” (Baylor College of Medicine, priority 2023, published 2024).

Format in all cases: cell-based
One assay has as its target BTK (Homo sapiens, UniProt Q06187). Nature of the assay: Western blotting for BTK in Mino cells. Also on record: host or cells: Mino. As to conditions: 24 h, Western blot. Here is the method:
Mino cells were seeded into the wells of six-well plates at the density of 5×10^5 cells per mL in 2 mL of complete RPMI-1640 culture medium. After overnight adaptation, cells were treated with serially diluted compounds (from 1,000-1.6 nM, 5-fold dilution) for 24 hours. After treatment, whole cell lysates for immunoblotting were prepared by pelleting Mino cells at 4° C. and 200×g for 5 minutes. The resulting cell pellets were washed once with ice-cold PBS and lysed in 1×RIPA lysis buffer (Alfa Aesar, Cat. No. J62524) supplemented with protease and phosphatase inhibitor cocktail (Thermo Fisher, Cat. No. 78430). Lysates were centrifuged at 15,000×g for 10 min at 4° C. and protein concentrations were assessed using BCA assay (Pierce, Cat. No. 23225). Same amounts of protein (30 μg) for each sample were loaded onto sodium dodecyl sulfate-polyacrylamide gel, separated by electrophoresis (Bio-Rad) at 120 V for 1.5 h and transferred to PVDF membrane using a Transblot Turbo system (Bio-Rad). After blocking for 1 h at room temperature in 1% BSA-TBST, the membranes were immunoblotted with the specified primary antibodies at the dilution of 1:1000 in TBST (Cell Signaling Technology: anti-BTK Cat. No. 8547, anti-IKZF1 Cat. No. 14859, anti-IKZF3 Cat. No. 15103, anti-β-actin Cat. No. 4570, Proteintech: anti-GSPT1, Cat. No. 10763-1-AP) overnight at 4° C. and the HRP-conjugated secondary antibodies (Cell Signaling, Cat. No. 7074, 1:1000 in TBST) for 1 h at room temperature. Imaging was performed using the ECL Prime chemiluminescent Western blot detection reagents (Kindle Biosciences, Cat. No. R1100) by visualization of the blots with an Imager (Kindle Biosciences, Cat. No. D1001). All Western blots were subsequently processed and quantified with Imager software ImageJ and protein level was normalized to the B-actin loading controls.

Assay [1] deals with T1, BTK-nLuc fusion protein (Homo sapiens, UniProt Q06187).
T1 construct: Addgene (vector) HsCD00514411; pLenti6.2-ccdB-Nanoluc 87078; host or cells: HEK-293T17
T1 sequence (Q06187 whole entry, the tested form may be a part): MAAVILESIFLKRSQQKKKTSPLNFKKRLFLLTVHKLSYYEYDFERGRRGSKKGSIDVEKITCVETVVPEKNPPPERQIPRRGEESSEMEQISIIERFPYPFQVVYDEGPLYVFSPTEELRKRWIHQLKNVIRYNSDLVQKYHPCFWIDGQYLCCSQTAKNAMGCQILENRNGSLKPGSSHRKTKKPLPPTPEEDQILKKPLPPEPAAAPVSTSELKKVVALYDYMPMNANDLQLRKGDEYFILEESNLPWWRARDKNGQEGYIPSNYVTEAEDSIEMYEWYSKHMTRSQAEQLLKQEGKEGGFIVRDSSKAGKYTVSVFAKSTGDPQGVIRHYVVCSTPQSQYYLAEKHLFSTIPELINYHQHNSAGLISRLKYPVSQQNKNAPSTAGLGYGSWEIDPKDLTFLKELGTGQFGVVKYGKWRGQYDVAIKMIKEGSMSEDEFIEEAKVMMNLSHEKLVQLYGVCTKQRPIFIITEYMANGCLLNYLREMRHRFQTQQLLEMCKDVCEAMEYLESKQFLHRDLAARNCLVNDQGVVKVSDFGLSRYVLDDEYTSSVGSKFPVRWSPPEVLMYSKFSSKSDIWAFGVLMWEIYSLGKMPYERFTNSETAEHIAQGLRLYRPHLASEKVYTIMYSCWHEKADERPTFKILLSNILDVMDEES
T1 sequence (Q96SW2 whole entry, further chain, the tested form may be a part): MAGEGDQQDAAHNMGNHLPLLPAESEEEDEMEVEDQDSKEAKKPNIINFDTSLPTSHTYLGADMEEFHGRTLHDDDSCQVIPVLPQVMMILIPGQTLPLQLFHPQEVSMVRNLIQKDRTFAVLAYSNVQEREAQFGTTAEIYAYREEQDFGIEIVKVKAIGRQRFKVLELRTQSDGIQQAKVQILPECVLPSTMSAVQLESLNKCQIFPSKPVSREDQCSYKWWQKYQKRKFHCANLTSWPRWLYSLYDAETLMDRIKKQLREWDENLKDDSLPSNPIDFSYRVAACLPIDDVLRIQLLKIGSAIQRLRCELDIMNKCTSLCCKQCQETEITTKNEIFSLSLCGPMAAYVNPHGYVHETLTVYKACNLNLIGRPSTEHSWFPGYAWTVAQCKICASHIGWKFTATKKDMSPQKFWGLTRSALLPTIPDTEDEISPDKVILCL
T1 sequence (Q16531 whole entry partner, the tested form may be a part): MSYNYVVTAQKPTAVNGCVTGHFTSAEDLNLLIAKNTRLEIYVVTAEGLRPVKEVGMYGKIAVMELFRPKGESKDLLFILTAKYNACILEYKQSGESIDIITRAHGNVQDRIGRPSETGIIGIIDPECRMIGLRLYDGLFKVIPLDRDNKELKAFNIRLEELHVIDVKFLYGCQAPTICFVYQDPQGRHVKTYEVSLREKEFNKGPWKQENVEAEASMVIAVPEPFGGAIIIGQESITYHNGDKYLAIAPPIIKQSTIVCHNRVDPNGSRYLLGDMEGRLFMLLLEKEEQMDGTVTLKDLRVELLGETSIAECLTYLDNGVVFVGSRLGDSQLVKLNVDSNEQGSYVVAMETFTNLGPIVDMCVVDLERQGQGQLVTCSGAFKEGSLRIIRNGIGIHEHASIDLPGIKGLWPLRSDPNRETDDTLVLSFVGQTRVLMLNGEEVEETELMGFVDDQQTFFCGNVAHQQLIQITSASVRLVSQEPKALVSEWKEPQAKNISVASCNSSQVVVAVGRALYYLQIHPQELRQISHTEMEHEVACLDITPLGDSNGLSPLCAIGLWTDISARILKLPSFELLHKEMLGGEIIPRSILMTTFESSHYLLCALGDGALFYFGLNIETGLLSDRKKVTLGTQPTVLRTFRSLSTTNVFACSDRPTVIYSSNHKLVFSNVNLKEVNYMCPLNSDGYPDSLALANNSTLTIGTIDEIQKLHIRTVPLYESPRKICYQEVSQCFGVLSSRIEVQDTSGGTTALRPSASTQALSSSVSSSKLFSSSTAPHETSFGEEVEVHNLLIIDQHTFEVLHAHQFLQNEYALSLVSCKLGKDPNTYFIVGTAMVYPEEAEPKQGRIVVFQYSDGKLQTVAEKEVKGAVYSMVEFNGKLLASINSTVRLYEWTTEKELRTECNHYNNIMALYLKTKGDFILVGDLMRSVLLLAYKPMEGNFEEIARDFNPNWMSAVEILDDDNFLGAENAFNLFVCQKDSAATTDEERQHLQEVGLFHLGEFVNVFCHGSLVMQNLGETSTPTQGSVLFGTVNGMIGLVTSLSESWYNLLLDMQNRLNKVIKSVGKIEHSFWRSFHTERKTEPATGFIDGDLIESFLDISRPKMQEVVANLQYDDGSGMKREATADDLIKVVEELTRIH
Put plainly: BTK-nLuc endpoint degradation assay in HEK-293T cells. Conditions: HEK-293T cells stably expressing BTK-nLuc, 24 h. The procedure:
(§1) DD-03-171 is a known BTK degrader and used as a positive control. Panel f: HEK-293T cells stably expressing a BTK-nLuc fusion protein were treated with indicated compounds (same as in a-e) for 24 h. The BTK degradation was determined by evaluating luminescence signals of NanoLuc.
(§2) The nanoluc activity was determined using the furimazine substrate (Promega, Cat. No. N1110). Briefly, after 4 h incubation of indicated compounds, cells were directly lysed by addition of 100 μL of nanoluciferase detection solution, containing lysis buffer and furimazine (1/50 dilution). For the 24-hour treatment group, the old medium was replaced with 100 μL fresh opti-MEM, followed by the addition of equal volume of lysis buffer plus furimazine (1/50 dilution).

The target in assay [2] is T2, BTK-nLuc fusion protein (Homo sapiens, UniProt Q06187+Q96SW2).
T2 construct: Addgene (vector) HsCD00514411; pLenti6.2-ccdB-Nanoluc 87078; host or cells: HEK-293T17
T2 sequence (Q06187 whole entry, the tested form may be a part): as the sequence (Q06187 whole entry, the tested form may be a part) above
T2 sequence (Q96SW2 whole entry, the tested form may be a part): as the sequence (Q96SW2 whole entry, further chain, the tested form may be a part) above
T2 sequence (Q16531 whole entry partner, the tested form may be a part): as the sequence (Q16531 whole entry partner, the tested form may be a part) above
The description is as above. Conditions: HEK-293T cells stably expressing BTK-nLuc, 24 h. Here is the method: as §1, §2

BTK, sequence (Q06187 whole entry): as the sequence (Q06187 whole entry, the tested form may be a part) above

Take `Cc1c(NC(=O)c2ccc(C(C)(C)C)cc2)cccc1-c1cn(C)c(=O)c(Nc2ccc(C(=O)N3CCN(CCCCCCNC(=O)CNc4cccc5c4C(=O)N(C4CCC(=O)NC4=O)C5=O)CC3)cc2)n1` (centres unmarked) [DD-03-171, reference compound]: the “BTK WB Dmax” value on BTK is listed as 99%. Besides, the DC50 on BTK (read-out: BTK WB DC50) worked out at 0.9 nM; at BTK-nLuc fusion protein [2], 25.9 nM. The “BTK degradation (result in words)” value at BTK (up to 1000 nM) was “potently induces BTK degradation”. The “BTK-nLuc Dmax” value at BTK-nLuc fusion protein [1] worked out at 96%.
